Experiments:
Haemonchus contortus = Haemonchus contortus larvacidal (larval development) assay, LD99; format: in vitro
Method: The LD99 value is the dose, expressed as […], that was required to kill 99% of a sample of Haemonchus contortus.
a) Haemonchus Contortus Larvacidal Assay:
The effect of compounds on larval development was determined in the assay described by Gill et al. [International Journal of Parasitology 25:463-470 (1995)]. Briefly, in this assay, nematode eggs are applied to the surface of an agar matrix containing the test compound and then allowed to develop through to the L3, infective stage (6 days). The wells for each dilution of every compound (from highest to lowest concentration) are inspected to determine the well number corresponding to the lowest concentration at which development is inhibited in 99% of the nematode larvae present (LD99). Because well numbers correspond to a two-fold serial dilution of each compound, a titre (dilution factor) is generated as 2^n−1, where n is the well number. By dividing the highest concentration tested by the titre an LD99 value can be obtained, representing the concentration required to inhibit development in 99% of the nematode larvae present. The compounds supplied as solid and viscous liquids are dissolved in DMSO. Twelve serial one-half dilutions in DMSO solution are prepared from the stock solution, each of which is then diluted 1/5 with water. Aliquots (10 μl) of each dilution are transferred to the bioassay plates to give a final concentration range of 0.024 to 50 μg/ml.
(§1) In Table 7, provided below, are listed the Haemonchus contortus LD99 values (measured in micrograms/mL), the Ctenocephalides felis rapid screening values (measured in % mortality), the Ctenocephalides felis LC50 values (measured in micrograms/cm^2) and the Rhipicephalus sanguineus rapid screening values (measured in % mortality) for selected compounds in accordance with the present invention.

[1] = tested on: cat flea (Ctenocephalides felis); experiment: Ctenocephalides felis adulticide assay: single dose screen on treated glass surface (% mortality at 1.26 μg/cm^2, 24 hours); format: in vivo; conditions: for mortality at 1.26 µg/cm2, 1.26 µg/cm2: Ctenocephalides felis, 24 h, read-out: Ctenocephalides felis Mortality (%) 24 h
Method: The LC50 value is the concentration, expressed as μg/cm^2, that was required to kill 50% of the sample of cat fleas on contact with the tested compound. Certain tests are also reported as the percent of a sample of cat fleas that were killed at a concentration of 1.26 μg/cm^2 (“% mortality”), for the compounds tested in this way.
b) Ctenocephalides felis Adulticide Assay: C.felis single dose screen
Mortality of fleas is the primary endpoint in the assay. […] The concentration chosen (1.26 μg/cm^2) is higher than that known to kill 90% of cat fleas (LC90) using the reference compound, permethrin.
The test species employed was the cat flea (Ctenocephalides felis). The strain used was obtained from external suppliers as pupae and held in the laboratory under testing conditions until the adults had emerged. Fifteen (15) fleas were used in a minimum of four replicates against a single concentration level (approximately 60 fleas). The insects were selected to be in the adult life stage, aged between 3 and 7 days post emergence.
The compounds to be tested were supplied as solids and were prepared in acetone as described below prior to testing. Samples were stored in a refrigerator (5±1° C.) unless otherwise specified.
During the mortality testing, the temperature was maintained at 25±1° C. Humidity was maintained at 75±5%. The base (area=159 mm^2) of a 100 mL glass Erlenmeyer (conical) flask provided the treatment surface. Flasks were pre-treated with Coatasil™ glass treatment to maximise bio-availability of test compounds by preventing them from binding to glass the surface. The base of the 100 mL Erlenmeyer flask was treated with 0.5 mL of test sample in acetone and gently swirled. This volume was sufficient to cover the base of the flask. Flasks were left to dry for 24 hours before flea exposure.
Adult cat fleas were placed into a sorting chamber, which allowed fleas to jump into the Erlenmeyer flasks. Fifteen (15) adult cat fleas were collected in each flask. The top of the flasks were then covered in Parafilm™ and small holes were made to allow gas exchange. A 0.5 mL volume of acetone as a solvent control was applied to the base of an Erlenmeyer flask and the testing proceeded in the same manner described above. […] Pooled 24 hour mortality data were converted to percentages and are summarized by Table 4, below.
as §1

[2] = tested on: Brown Dog Tick (Rhipicephalus sanguineus); experiment: Topical application on brown dog ticks, single dose screen (% mortality at 24 hours); format: in vivo; conditions: adult brown dog ticks, topical 1 μL in acetone on abdomen, single dose 10 μg per tick
Method: d) Topical Application On Brown Dog Ticks (Rhipicephalus sanguineus)
The aim of the test is to determine the presence of significant acaricidal activity in sample compounds or formulations when applied topically on brown dog ticks. A tick is defined as dead if it gives no apparent response when: (i) touched lightly and (ii) then observed for 1 minute. To assess the experimental compound for acaricidal activity, a single dose level is chosen based on known results from previous experiments with a commercially available active reference compound.
In the present example, both permethrin and fipronil were employed as reference compounds. The insect species tested was the Brown Dog Tick (Rhipicephalus sanguineus). Mixed sex adult ticks were used for tests. The strain used was cultured from a field strain and supplied as unfed adult ticks (mixed sex). Ticks were maintained in controlled conditions (temp. 18°±2° C., humidity 75±5% RH).
Test compounds (formulations or active ingredients) were stored in a refrigerator (5±1° C.) unless otherwise specified. The temperature was maintained at 25±1° C. and the humidity was ambient. The screening dose chosen was higher than that known kill 90% of insects (LD90) using the reference compound. In the case of topical application of active compounds on adult ticks, the reference compound was fipronil and the dose chosen was 10 μg of active per tick (=10 μg of fipronil/1 μl of acetone). Ticks were each treated on the abdomen with 1 μL of a single dose level of test sample in acetone; ten ticks were treated with solvent only (acetone) in each test. Tests were replicated 4 times (total of 40 ticks treated). Ticks were held in recovery containers maintained under appropriate rearing conditions for 24 hours. Mortality resulting from the treatments was recorded at 24 hours. Pooled 24 hour mortality data were converted to percentages.
as §1

O=S(=O)(Nc1cc(C(F)(F)F)ccc1Oc1ccc(Cl)cc1Cl)C(F)(F)F [Compound 10]
Haemonchus contortus LD99 (Haemonchus contortus): 1.5 µg/mL | Ctenocephalides felis Mortality (%) 24 h ([1]; in vivo): 38%

O=S(=O)(Nc1cccc(Cl)c1Oc1ccc(Cl)cc1Cl)C(F)(F)F [Compound 11]
Haemonchus contortus LD99 (Haemonchus contortus): 2.5 µg/mL | Ctenocephalides felis Mortality (%) 24 h ([1]; in vivo): 20%

O=S(=O)(Nc1cc(Cl)c(Cl)cc1Oc1ccc(Cl)cc1Cl)C(F)(F)F [Compound 13]
Haemonchus contortus LD99 (Haemonchus contortus): 1.8 µg/mL | Ctenocephalides felis Mortality (%) 24 h ([1]; in vivo): 48%

O=S(=O)(Nc1ccc(Cl)c(Cl)c1Oc1ccccc1F)C(F)(F)F [Compound 17]
Haemonchus contortus LD99 (Haemonchus contortus): 7.5 µg/mL | Ctenocephalides felis Mortality (%) 24 h ([1]; in vivo): 19%

CC(C)(C)c1ccc(Oc2cc(Cl)c(Cl)cc2NS(=O)(=O)C(F)(F)F)cc1 [Compound 18]
Haemonchus contortus LD99 (Haemonchus contortus): 2.8 µg/mL | Ctenocephalides felis Mortality (%) 24 h ([1]; in vivo): 19%

O=S(=O)(Nc1cc(Cl)c(Cl)cc1Oc1ccc(F)cc1Cl)C(F)(F)F [Compound 19]
Haemonchus contortus LD99 (Haemonchus contortus): 5.0 µg/mL | Ctenocephalides felis Mortality (%) 24 h ([1]; in vivo): 42%

O=S(=O)(Nc1cc(C(F)(F)F)c(Cl)cc1Oc1ccc(Cl)cc1Cl)C(F)(F)F [Compound 22]
Haemonchus contortus LD99 (Haemonchus contortus): 0.63 µg/mL | Ctenocephalides felis Mortality (%) 24 h ([1]; in vivo): 4%

O=S(=O)(c1ccc(Cl)cc1)c1cc(Cl)ccc1NS(=O)(=O)C(F)(F)F [Compound 24, N-[4-chloro-2-(4-(chlorophenyl)sulfonyl)phenyl]-1,1,1-trifluoromethanesulfonamide]
Haemonchus contortus LD99 (Haemonchus contortus): 12.0 µg/mL | Ctenocephalides felis Mortality (%) 24 h ([1]; in vivo): 19%

Cc1cccc(Oc2cc(Cl)ccc2NS(=O)(=O)C(F)(F)F)c1C [Compound 27]
Haemonchus contortus LD99 (Haemonchus contortus): 14 µg/mL | Ctenocephalides felis Mortality (%) 24 h ([1]; in vivo): 59%

O=S(=O)(Nc1ccc(Cl)cc1Oc1cccc2c1CCCC2)C(F)(F)F [Compound 28]
Haemonchus contortus LD99 (Haemonchus contortus): 12 µg/mL | Ctenocephalides felis Mortality (%) 24 h ([1]; adult cat fleas, single dose screen on treated glass surface, mortality at 24 h): 10%

O=S(=O)(Nc1cc(C(F)(F)F)ccc1Oc1ccc(Cl)cc1)C(F)(F)F [Compound 29]
Haemonchus contortus LD99 (Haemonchus contortus): 7.0 µg/mL | Ctenocephalides felis Mortality (%) 24 h ([1]; in vivo): 57%

CN(c1ccc(Cl)cc1Oc1ccc(Cl)cc1Cl)S(=O)(=O)C(F)(F)F [Compound 70, N-[4-Chloro-2-(2,4-dichlorophenoxy)phenyl]-N-methyl-1,1,1-trifluoromethanesulfonamide]
mortality at 1.26 µg/cm2, 1.26 µg/cm2 [1]: 11% | Ctenocephalides felis Mortality (%), measured at 48 hours ([1]; in vivo): 91% | Rhipicephalus sanguineus Mortality (%) 24 h [2]: 5%

CCOCN(c1ccc(Cl)cc1Oc1ccc(Cl)cc1Cl)S(=O)(=O)C(F)(F)F [Compound 71, N-[4-Chloro-2-(2,4-dichlorophenoxy)phenyl]-N-ethoxymethyl 1,1,1-trifluoromethanesulfonamide]
Ctenocephalides felis Mortality (%) 24 h ([1]; in vivo): 0% | Ctenocephalides felis Mortality (%), measured at 48 hours ([1]; in vivo): 100% | Rhipicephalus sanguineus Mortality (%) 24 h [2]: 5%

CC(C)(C)C(=O)OCN(c1ccc(Cl)cc1Oc1ccc(Cl)cc1Cl)S(=O)(=O)C(F)(F)F [Compound 72, N-[4-Chloro-2-(2,4-dichlorophenoxy)phenyl]-N-(trimethylacetyl)oxymethyl-1,1,1-trifluoromethanesulfonamide]
mortality at 1.26 µg/cm2, 1.26 µg/cm2 [1]: 14% | Ctenocephalides felis Mortality (%), measured at 48 hours ([1]; in vivo): 100% | Rhipicephalus sanguineus Mortality (%) 24 h [2]: 0%

CCCC(=O)OCN(c1ccc(Cl)cc1Oc1ccc(Cl)cc1Cl)S(=O)(=O)C(F)(F)F [Compound 73, N-[4-chloro-2-(2,4-dichlorophenoxy)phenyl]-N-(butyryl)oxymethyl-1,1,1-trifluoromethanesulfonamide]
mortality at 1.26 µg/cm2, 1.26 µg/cm2 [1]: 31% | Ctenocephalides felis Mortality (%), measured at 48 hours ([1]; in vivo): 100% | Rhipicephalus sanguineus Mortality (%) 24 h [2]: 8%

CC(C)=CCN(c1ccc(Cl)cc1Oc1ccc(Cl)cc1Cl)S(=O)(=O)C(F)(F)F [Compound 75, N-(3-methyl-2-butenyl)-N-[4-chloro-2-(2,4-dichlorophenoxy)phenyl]-1,1,1-trifluoromethanesulfonamide]
mortality at 1.26 µg/cm2, 1.26 µg/cm2 [1]: 97% | Rhipicephalus sanguineus Mortality (%) 24 h [2]: 3%

CC(C)=CCN(c1ccc(Cl)cc1Oc1ccccc1F)S(=O)(=O)C(F)(F)F [Compound 82]
Ctenocephalides felis Mortality (%) 24 h ([1]; in vivo): 90% | Rhipicephalus sanguineus Mortality (%) 24 h [2]: 0%

C#CCN(c1ccc(Cl)cc1Oc1ccc(Cl)cc1Cl)S(=O)(=O)C(F)(F)F [Compound 83, N-[4-chloro-2-(2,4-dichlorophenoxy)phenyl]-N-(2-propynyl)-1,1,1-trifluoromethanesulfonamide]
mortality at 1.26 µg/cm2, 1.26 µg/cm2 [1]: 100% | Rhipicephalus sanguineus Mortality (%) 24 h [2]: 8%

COCN(c1ccc(Cl)cc1Oc1ccc(Cl)cc1Cl)S(=O)(=O)C(F)(F)F [Compound 84]
Ctenocephalides felis Mortality (%) 24 h ([1]; in vivo): 100% | Rhipicephalus sanguineus Mortality (%) 24 h [2]: 0%

C#CCN(c1ccc(Cl)cc1Oc1ccccc1F)S(=O)(=O)C(F)(F)F [Compound 85]
Ctenocephalides felis Mortality (%) 24 h ([1]; in vivo): 97% | Rhipicephalus sanguineus Mortality (%) 24 h [2]: 5%

O=S(=O)(Nc1ccccc1Nc1ccccc1)C(F)(F)F [Compound 90]
Ctenocephalides felis Mortality (%) 24 h ([1]; in vivo): 88% | Rhipicephalus sanguineus Mortality (%) 24 h [2]: 13%

O=S(=O)(Nc1cccc(Oc2ccccc2)c1)C(F)(F)F [m1]
Ctenocephalides felis Mortality (%) 24 h ([1]; in vivo): 93% | Rhipicephalus sanguineus Mortality (%) 24 h [2]: 38%

CCOCN(c1cccc(Oc2ccccc2)c1)S(=O)(=O)C(F)(F)F [m3]
Ctenocephalides felis Mortality (%) 24 h ([1]; in vivo): 57% | Rhipicephalus sanguineus Mortality (%) 24 h [2]: 38%

COCN(c1cccc(Oc2ccccc2)c1)S(=O)(=O)C(F)(F)F [m4]
Ctenocephalides felis Mortality (%) 24 h ([1]; in vivo): 90% | Rhipicephalus sanguineus Mortality (%) 24 h [2]: 8%

— US20060281695A1, “Control of parasites in animals by N-[(phenyloxy)phenyl]-1,1,1-trifluoromethanesulfonamide and N-[(phenylsulfanyl)phenyl]-1,1,1-trifluoromethanesulfonamide derivatives” (priority 2005, published 2006)
